# Starred links: 1 amine or outer side, 2 acyl side, 3 side chain; linkers in the order of their positions; H or OH if unused. Positions of bridges follow the written chain, without caps; N, C: chain ends. Residues, ends and D or L forms follow the SMILES beside them. *: point of attachment. C18 diacid = O=C(O)CCCCCCCCCCCCCCCCC(=O)*; γGlu = O=C(O)[C@H](CCC(=O)[*:2])N[*:1]; AEEA = NCCOCCOCC(=O)O
# Biological target: T1, human natriuretic peptide receptor 2 (hNPR2) (Homo sapiens, UniProt P20594)
# T1 construct: expressed in transfected cells; host or cells: HEK293 (ATCC CRL-1573), clone 35, co-transfected with pGloSensor-42F
# T1 sequence (P20594 23-1047): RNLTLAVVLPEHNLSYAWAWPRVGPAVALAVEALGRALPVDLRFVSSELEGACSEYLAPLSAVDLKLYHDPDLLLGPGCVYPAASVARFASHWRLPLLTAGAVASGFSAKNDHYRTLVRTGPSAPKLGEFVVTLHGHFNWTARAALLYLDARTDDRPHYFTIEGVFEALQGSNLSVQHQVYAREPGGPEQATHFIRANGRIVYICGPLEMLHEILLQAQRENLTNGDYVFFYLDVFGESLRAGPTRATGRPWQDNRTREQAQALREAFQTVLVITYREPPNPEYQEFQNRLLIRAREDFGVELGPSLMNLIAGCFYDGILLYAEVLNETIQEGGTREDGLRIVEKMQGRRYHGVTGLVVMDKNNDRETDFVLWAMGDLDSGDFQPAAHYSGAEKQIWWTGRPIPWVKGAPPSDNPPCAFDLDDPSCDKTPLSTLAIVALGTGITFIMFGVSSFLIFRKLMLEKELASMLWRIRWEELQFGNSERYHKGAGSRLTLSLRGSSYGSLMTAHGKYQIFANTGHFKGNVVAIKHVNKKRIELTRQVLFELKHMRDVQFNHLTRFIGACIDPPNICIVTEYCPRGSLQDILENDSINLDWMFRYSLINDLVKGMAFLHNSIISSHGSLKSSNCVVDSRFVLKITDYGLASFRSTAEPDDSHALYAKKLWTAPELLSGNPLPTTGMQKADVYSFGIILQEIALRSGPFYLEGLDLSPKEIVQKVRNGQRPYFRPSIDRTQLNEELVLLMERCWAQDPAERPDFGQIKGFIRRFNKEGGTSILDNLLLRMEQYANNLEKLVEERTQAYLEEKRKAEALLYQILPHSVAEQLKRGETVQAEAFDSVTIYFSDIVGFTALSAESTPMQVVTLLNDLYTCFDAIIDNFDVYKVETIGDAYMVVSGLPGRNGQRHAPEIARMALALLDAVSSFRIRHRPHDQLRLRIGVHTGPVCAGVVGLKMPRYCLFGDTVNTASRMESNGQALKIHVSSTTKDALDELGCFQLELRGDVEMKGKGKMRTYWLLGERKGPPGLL
# Test: In vitro hNPR2 activity assay (cGMP GloSensor reporter, HEK293)
# Format: cell-based
# Details: for hNPR2 0% HSA. [EC50% rel CNP]: potency relative to CNP22 (0065); for EC50: 0% HSA, HEK293-hNPR2/GloSensor cells
# Method: To evaluate the in vitro activity of CNP22 (0065; Chem. 1) and CNP compounds of the invention, they were tested for their ability to induce production of cyclic guanosine monophosphate (cGMP) in reporter cells expressing the human natriuretic peptide receptor 2 (hNPR2).
# Cell culture: To produce the reporter cell line, HEK293 (ATCC® CRL-1573™) cells were stably transfected with the pGloSensor-42F reporter plasmid (GloSensor cGMP reporter—luciferase, Promega) and an expression plasmid encoding the hNPR2 receptor. A single cell clone was isolated for the reporter cell line. When reporter cells are exposed to an hNPR2 activating compound, hNPR2 cause production of cGMP. […] Active GloSensor luciferase is able to convert luciferin to oxyluciferin, a process that produces bioluminescence. Upon cell lysis and supply of luciferase substrate, luciferase activity can be quantified by detection of luminescence. Therefore, addition of an hNPR2 activating compound and subsequent addition of detection reagent to reporter cells causes generation of luminescence in a dose dependent manner. […] This measure, also referred to as in vitro potency, is reported for all compounds tested. In all the in vitro activity experiments, CNP22 was used as a positive in-plate control for hNPR2 activation. To reduce inter-assay variation, we also report the potency of each compound relative to the potency of the CNP22 control on each plate.
# Procedure: HEK293-hNPR2/GloSensor clone 35 cells were continuously cultured in selection medium (DMEM containing 10% FCS, 1% P/S, 200 μg/mL G418 and 100 μg/mL hygromycin). To perform the assay, cells were detached with TrypLE Express (Gibco #12604013), put through a 70 μm cell strainer, counted and seeded in 30 μL/well assay medium (DMEM without phenol red and with 1% P/S) at 10,000 cells/well in white 384-well plates (Perkin Elmer #6007680) overnight. The following day, test compounds were serial diluted in dilution medium (DMEM without phenol red containing 1% OVA (Sigma #A5505 lot 04M7001V), 0.01% Tween20 (Roche #33766700) and 1% P/S) and 10 μL/well of diluted test compounds were subsequently added to the cells. For each compound, ten different concentrations in the range 0.25 μM-10 μM were tested. After 30 min of incubation at 37° C. and 5% CO2, 40 μL/well Bright-Glo detection reagent (Promega #E2650) was added. […] To determine the in vitro potency or EC50 of each test compound, a four parameter logistic regression was done on the raw data for each test compound using the Python package SciPy optimize. The average EC50 values are listed as “hNPR2 0% HSA. [EC50 (nM)]” in Table 2. A relative potency was calculated by the following expression: EC50 (CNP22 in-plate control)/EC50 (test compound)*100, shown as “hNPR2 0% HSA. [EC50% rel CNP]” in Table 2. A minimum of two replicates was measured for each test compound.
Structure (SMILES),EC50,hNPR2 0% HSA. [EC50% rel CNP]
CC[C@H](C)[C@@H]1NC(=O)[C@H](CCCNC(=N)N)NC(=O)[C@H](CC(=O)O)NC(=O)[C@H](CC(C)C)NC(=O)[C@@H]2CCCN2C(=O)[C@H](CC(C)C)NC(=O)CNC(=O)[C@H](Cc2ccccc2)NC(=O)[C@@H](NC(=O)CNC(=O)[C@H](CCCCN)NC(=O)[C@H](CO)NC(=O)[C@H](CC(C)C)NC(=O)CNC(=O)[C@H](CCCCN)NC(=O)[C@H](CCC(=O)O)NC(=O)[C@H](CCC(N)=O)NC(=O)[C@H](C)NC(=O)CNC(=O)[C@H](CCC(=O)O)NC(=O)[C@H](Cc2ccc(O)cc2)NC(=O)COCCOCCNC(=O)COCCOCCNC(=O)CC[C@H](NC(=O)CCCCCCCCCCCCCCCCC(=O)O)C(=O)O)CSSC[C@@H](C(=O)O)NC(=O)CNC(=O)[C@H](CC(C)C)NC(=O)CNC(=O)[C@H](CO)NC(=O)[C@H](CC(C)C)NC(=O)[C@H](CO)NC(=O)CNC1=O [compound 1226] ({C18 diacid-γGlu-AEEA-AEEA}-YEGAQEKGLSKGCFGLPLDRIGSLSGLGC-OH; disulfide 13-29),–,7.5%
CC[C@H](C)[C@@H]1NC(=O)[C@H](CCCNC(=N)N)NC(=O)[C@H](CC(=O)O)NC(=O)[C@H](CC(C)C)NC(=O)[C@@H]2CCCN2C(=O)[C@H](CC(C)C)NC(=O)CNC(=O)[C@H](Cc2ccccc2)NC(=O)[C@@H](NC(=O)CNC(=O)[C@H](CO)NC(=O)[C@H](CO)NC(=O)[C@H](CC(C)C)NC(=O)CNC(=O)[C@H](CCCCN)NC(=O)[C@H](CCC(=O)O)NC(=O)[C@H](CCC(N)=O)NC(=O)[C@H](C)NC(=O)CNC(=O)[C@H](CCC(=O)O)NC(=O)[C@H](Cc2ccc(O)cc2)NC(=O)COCCOCCNC(=O)COCCOCCNC(=O)CC[C@H](NC(=O)CCCCCCCCCCCCCCCCC(=O)O)C(=O)O)CSSC[C@@H](C(=O)O)NC(=O)CNC(=O)[C@H](CC(C)C)NC(=O)CNC(=O)[C@H](CO)NC(=O)[C@H](CC(C)C)NC(=O)[C@H](CO)NC(=O)CNC1=O [compound 1228] ({C18 diacid-γGlu-AEEA-AEEA}-YEGAQEKGLSSGCFGLPLDRIGSLSGLGC-OH; disulfide 13-29),–,12.3%
CC[C@H](C)[C@@H]1NC(=O)[C@H](CCCNC(=N)N)NC(=O)[C@H](CC(=O)O)NC(=O)[C@H](CC(C)C)NC(=O)[C@H](CCCCN)NC(=O)[C@H](CC(C)C)NC(=O)CNC(=O)[C@H](Cc2ccccc2)NC(=O)[C@@H](NC(=O)CNC(=O)[C@H](CO)NC(=O)[C@H](CO)NC(=O)[C@H](CC(C)C)NC(=O)CNC(=O)[C@H](CCCCN)NC(=O)[C@H](CCC(=O)O)NC(=O)[C@H](CCC(N)=O)NC(=O)[C@H](C)NC(=O)CNC(=O)[C@H](CCCCN)NC(=O)[C@H](CCC(=O)O)NC(=O)COCCOCCNC(=O)COCCOCCNC(=O)CC[C@H](NC(=O)CCCCCCCCCCCCCCCCC(=O)O)C(=O)O)CSSC[C@@H](C(=O)O)NC(=O)CNC(=O)[C@H](CC(C)C)NC(=O)CNC(=O)[C@H](CO)NC(=O)[C@H](CC(C)C)NC(=O)[C@H](CO)NC(=O)CNC1=O [compound 1230] ({C18 diacid-γGlu-AEEA-AEEA}-EKGAQEKGLSSGCFGLKLDRIGSLSGLGC-OH; disulfide 13-29),6.98 nM,4.2%

# Continued, in another order:
EC50,Structure (SMILES),hNPR2 0% HSA. [EC50% rel CNP]
4.44 nM,CC[C@H](C)[C@@H]1NC(=O)[C@H](CCCNC(=N)N)NC(=O)[C@H](CC(=O)O)NC(=O)[C@H](CC(C)C)NC(=O)[C@H](CCCCN)NC(=O)[C@H](CC(C)C)NC(=O)CNC(=O)[C@H](Cc2ccccc2)NC(=O)[C@@H](NC(=O)CNC(=O)[C@H](CCCCN)NC(=O)[C@H](CO)NC(=O)[C@H](CC(C)C)NC(=O)CNC(=O)[C@H](CCCCN)NC(=O)[C@H](CCC(=O)O)NC(=O)[C@H](CCC(N)=O)NC(=O)[C@H](C)NC(=O)CNC(=O)[C@H](CCCCN)NC(=O)[C@H](CCC(=O)O)NC(=O)COCCOCCNC(=O)COCCOCCNC(=O)CC[C@H](NC(=O)CCCCCCCCCCCCCCCCC(=O)O)C(=O)O)CSSC[C@@H](C(=O)O)NC(=O)CNC(=O)[C@H](CC(C)C)NC(=O)CNC(=O)[C@H](CO)NC(=O)[C@H](CC(C)C)NC(=O)[C@H](CO)NC(=O)CNC1=O [compound 1229] ({C18 diacid-γGlu-AEEA-AEEA}-EKGAQEKGLSKGCFGLKLDRIGSLSGLGC-OH; disulfide 13-29),5.3%
5.62 nM,CC[C@H](C)[C@@H]1NC(=O)[C@H](CCCNC(=N)N)NC(=O)[C@H](CC(=O)O)NC(=O)[C@H](CC(C)C)NC(=O)[C@H](CCCCN)NC(=O)[C@H](CC(C)C)NC(=O)CNC(=O)[C@H](Cc2ccccc2)NC(=O)[C@@H](NC(=O)CNC(=O)[C@H](CCCCN)NC(=O)[C@H](CO)NC(=O)[C@H](CC(C)C)NC(=O)CNC(=O)[C@H](CCCCN)NC(=O)[C@H](CCC(=O)O)NC(=O)[C@H](CCC(N)=O)NC(=O)[C@H](C)NC(=O)CNC(=O)[C@H](CCC(N)=O)NC(=O)[C@H](CCC(=O)O)NC(=O)COCCOCCNC(=O)COCCOCCNC(=O)CC[C@H](NC(=O)CCCCCCCCCCCCCCCCC(=O)O)C(=O)O)CSSC[C@@H](C(=O)O)NC(=O)CNC(=O)[C@H](CC(C)C)NC(=O)CNC(=O)[C@H](CO)NC(=O)[C@H](CC(C)C)NC(=O)[C@H](CO)NC(=O)CNC1=O [compound 1231] ({C18 diacid-γGlu-AEEA-AEEA}-EQGAQEKGLSKGCFGLKLDRIGSLSGLGC-OH; disulfide 13-29),4.1%
1.63 nM,CC[C@H](C)[C@@H]1NC(=O)[C@H](CCCNC(=N)N)NC(=O)[C@H](CC(=O)O)NC(=O)[C@H](CC(C)C)NC(=O)[C@H](CCCCN)NC(=O)[C@H](CC(C)C)NC(=O)CNC(=O)[C@H](Cc2ccccc2)NC(=O)[C@@H](NC(=O)CNC(=O)[C@H](CCCCN)NC(=O)[C@H](CO)NC(=O)[C@H](CC(C)C)NC(=O)CNC(=O)[C@H](CCCCN)NC(=O)[C@H](CCC(=O)O)NC(=O)[C@H](CCC(N)=O)NC(=O)[C@H](C)NC(=O)CNC(=O)[C@H](CCCCN)NC(=O)[C@H](Cc2ccc(O)cc2)NC(=O)COCCOCCNC(=O)COCCOCCNC(=O)CC[C@H](NC(=O)CCCCCCCCCCCCCCCCC(=O)O)C(=O)O)CSSC[C@@H](C(=O)O)NC(=O)CNC(=O)[C@H](CC(C)C)NC(=O)CNC(=O)[C@H](CO)NC(=O)[C@H](CC(C)C)NC(=O)[C@H](CO)NC(=O)CNC1=O [compound 1232] ({C18 diacid-γGlu-AEEA-AEEA}-YKGAQEKGLSKGCFGLKLDRIGSLSGLGC-OH; disulfide 13-29; C-terminus assumed),16.0%

# From US20240209028A1, “CNP COMPOUNDS” (priority 2022, published 2024)
